Reference: patent US20230286995A1, “METABOLICALLY STABLE PYRIMIDINYL DIHYDROQUINOXALINONES AS TUBULIN POLYMERIZATION INHIBITORS” (UNIVERSITY OF TENNESSEE RESEARCH FOUNDATION, priority 2022, published 2023)
Where two headings read alike, the source gives them in different places.

How the values were obtained:
[1] = test system: DU-145; assay: Cytotoxicity assay (MTS, 72 h); type: cell-based; details: Homo sapiens, DU-145, read-out: IC50 ± SEM (nM) DU-145; Table 2
[2] = test system: PC3/TxR; assay: Cytotoxicity assay (MTS, 72 h); type: cell-based; details: Homo sapiens, Table 6, paclitaxel-resistant, read-out: IC50 (nM) Prostate cancer PC3/TxR
Description: Biology. Cell culture and Reagents. […] MIA Paca-2 pancreatic cancer cells were cultured in media also supplemented with 2.5% horse serum. PANC-1 and PC-3 were cultured in RPMI 1640 medium (Gibco, Carlsbad, Calif.) supplemented with 10% FBS and 1% antibiotic/antimycotic mixture. […] For biological experiments, pyrimidine dihydroquinoxalinone derivatives were dissolved in DMSO to create 20 mM stock solutions and stored at −20° C. until use.
Cytotoxicity Assay. […] Each experiment consisted of four replicates.

[3] = test system: A375/TxR, M14/LCC6MDR1, MDA-MB-231/TxR, PC3/TxR, and DU145/TxR; assay: Cell proliferation inhibition assay (MTS), paclitaxel-resistant panel; type: cell-based, human
Description: Cell proliferation inhibition assay: The cell proliferation inhibitory effects of tested compounds were first determined through MTS assay as previously described. In short, 3000 to 7500 cells were added to a 96-well cell culture plate followed by the treatment of the test compounds (0.1 nM to 3 μM) in quadruplicate after seeding and overnight incubation. After 72 hours of treatment, MTS (Promega) was added to the wells and the absorbance was measured at […] after incubating for 1.5 to 2 h. […] Briefly, A375/TxR cells (1000 cells/well) were treated with growth medium containing 0.5 nM, 1 nM, or 2 nM of 5v and incubated for over 7 days (the incubation medium was changed every 3 days). After fixing and staining with 0.5% crystal violet, the cell colonies were quantified by the Hybrid Counting module of the Keyence BZ-X700 microscope. The assay was performed in triplicate.

[4] = test system: A375; assay: Cytotoxicity assay (MTS, 72 h); details: Homo sapiens;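 note: compounds tested from 0.1 nM up to 3 µM in four replicate wells, with absorbance read at 490 nm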
[5] = target: T1, tubulin protein from bovine brain (Bos taurus, UniProt P81947+Q6B856); assay: Tubulin polymerization assay (FIG. 5A); type: biochemical; details: 10 μM, cell-free
T1 construct: tubulin protein from bovine brain origin; purchased Cytoskeleton, Denver, Colo; host or cells: bovine brain
Description: Tubulin polymerization reaction was initiated by adding 100 μL of tubulin protein from bovine brain origin (3 mg/ml, Cytoskeleton, Denver, Colo.) into 10 μM of test compounds in general tubulin buffer (80 mM PIPES, 2.0 mM MgCl2, 0.5 mM EGTA, and 1 mM GTP) according to the manufacturer protocol. The reaction kinetics were recorded in every thirty seconds for 1 h at 37° C. and a microplate reader equipped with absorbance settings at 340 nm wavelength was used for this purpose. The experiment was performed in duplicates.

[6] = test system: DU-145/VxR xenografts; design: species or system NSG mice; details: mouse, in vivo
[7] = test system: A-253 and Detroit 562; assay: Cytotoxicity in head and neck cancer cell lines; type: cell-based; details: Homo sapiens; FIG. 39A; read-out: IC50 values, range over A-253 and Detroit 562
Description: A panel of dihydroquinoxalinones were tested in two head and neck cancer cell lines, A-253 and Detroit 562. A-253 cells are a human salivary epidermoid carcinoma cell line, whereas Detroit 562 is a head and neck squamous cell carcinoma (HNSCC). Oral cancer is the most common type of head and neck cancer and more than 90% of oral cancers are either oral or oropharyngeal squamous cell carcinoma (SCC). A major clinical dilemma is chemotherapy efficiency targeted for head and neck squamous cell carcinoma (HNSCC). The inability to successfully complete cancer treatment utilizing a standard surgical approach due to an advanced stage of HNSCC and/or resistance of SCC cells to conventional chemotherapy and/or radiotherapy leads to a continuous search for new compounds with cytostatic activity and minor side effects.
FIGS. 39B and 39C illustrate the graphical representation of the data. […] For example, at treatment levels as low of 0.5 nM, 12k was able to prevent head and neck cancer cell proliferation almost completely, whereas it required 5 nM of 17ya to achieve similar antiproliferation.

[8] = test system: Mia PaCa-2; assay: Colony formation assay (PDAC); type: cell-based, human; details: tested 1, 2.5, 5 nM
Description: Cells were seeded at 1000 cells per well in 6-well plates in triplicates and treated with vehicle control or 1-5 nmol/L test compounds for 11 to 14 days. The colonies were fixed with 100% methanol and stained with 0.5% crystal violet. Colony area was quantified with Image J software.

[9] = test system: Mia PaCa-2 cells; assay: Scratch migration assay (PDAC); type: cell-based, human; details: 5m 2 nM, PTX 4 nM, 48 h
Description: The Mia PaCa-2 cells (25,000 cells/well) were seeded in 96-well plates and allowed to adhere overnight. At 80-90% confluence, scratch was made with a wound maker. After washing off the debris, medium was replaced and tested compounds were added. Cells were live monitored with IncuCyte and pictures obtained every 2 h. Compared with the control, the wound width of cells under different treatment conditions was quantified according to the endpoint width over starting point.

[10] = test system: A549; assay: cells; details: Homo sapiens, A549, read-out: IC50 ± SEM (nM) A549
[11] = test system: A549/TxR; assay: cells; details: Homo sapiens, read-out: IC50 ± SEM (nM) A549/TxR
[12] = in vitro; details: rat, liver microsomes
[13] = Microsomal stability assay; details: Table 3; liver microsomes; mean (% CV)
[14] = test system: A2780/TxR ovarian cancer xenografts; assay: Orthotopic A2780/TxR ovarian cancer xenograft model; details: 5m 1 mg/kg IV; Compound 17ya 20 mg/kg PO; 3 weeks

T1 sequence (P81947 whole entry): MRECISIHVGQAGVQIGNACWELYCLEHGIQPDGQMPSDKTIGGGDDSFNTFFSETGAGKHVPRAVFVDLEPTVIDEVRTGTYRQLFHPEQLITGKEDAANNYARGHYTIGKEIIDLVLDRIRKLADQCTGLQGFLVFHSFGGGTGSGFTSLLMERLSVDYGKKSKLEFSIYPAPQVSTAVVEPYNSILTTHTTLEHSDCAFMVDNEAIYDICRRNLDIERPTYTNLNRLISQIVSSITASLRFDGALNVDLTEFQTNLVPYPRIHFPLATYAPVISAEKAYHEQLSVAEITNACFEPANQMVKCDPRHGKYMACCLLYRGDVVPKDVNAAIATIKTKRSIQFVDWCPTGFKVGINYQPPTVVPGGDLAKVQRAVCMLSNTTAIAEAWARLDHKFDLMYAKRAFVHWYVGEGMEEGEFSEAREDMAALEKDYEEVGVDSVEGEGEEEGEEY
T1 sequence (Q6B856 whole entry): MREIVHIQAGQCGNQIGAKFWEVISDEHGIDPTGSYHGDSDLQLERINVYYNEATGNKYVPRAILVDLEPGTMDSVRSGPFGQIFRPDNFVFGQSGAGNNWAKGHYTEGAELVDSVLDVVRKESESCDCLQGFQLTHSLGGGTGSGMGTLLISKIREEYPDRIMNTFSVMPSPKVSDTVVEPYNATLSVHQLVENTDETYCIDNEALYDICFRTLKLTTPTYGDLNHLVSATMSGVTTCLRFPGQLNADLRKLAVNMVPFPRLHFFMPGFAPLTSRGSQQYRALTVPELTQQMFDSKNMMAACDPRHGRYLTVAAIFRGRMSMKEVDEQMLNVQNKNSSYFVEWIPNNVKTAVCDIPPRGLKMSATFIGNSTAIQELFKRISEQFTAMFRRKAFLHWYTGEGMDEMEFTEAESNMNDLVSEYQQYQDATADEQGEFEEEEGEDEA

| Structure (SMILES) | IC50 [1] | IC50 [2] | IC50 level in paclitaxel-resistant cancer cells [3] | IC50 ([4]; A-375, read-out: IC50 (nM) Melanoma A375, Table 1) | IC50 ([4]; A-375, read-out: IC50 (nM) Melanoma Cancer A375, Table 6) | IC50 ([4]; A-375, read-out: IC50 ± SEM (nM) A375, Table 2) | effect on microtubule polymerization [5] | endpoint average tumor volume [6] | IC50 [7] | dose at which colony formation was completely inhibited [8] | cell migration / wound healing [9] | IC50 [10] | IC50 [11] | CLint scaled at 1 μg/mL [12] | Metabolic stability in mouse t1/2 [13] | mice having visible tumor [14] |
| --- | --- | --- | --- | --- | --- | --- | --- | --- | --- | --- | --- | --- | --- | --- | --- | --- |
| CCNc1nc2c(c(N3CC(=O)Nc4cc(OC)ccc43)n1)CCC2 [Compound 5v, 4-(2-(ethylamino)-6,7-dihydro-5H-cyclopenta[d]pyrimidin-4-yl)-7-methoxy-3,4-dihydroquinoxalin-2(1H)-one] | 1.8 ± 0.3 nM | 0.8 ± 0.1 nM | sub-nanomolar level | 0.7 ± 0.1 nM | ~1.6 nM | 0.4 ± 0.04 nM | – | – | – | – | – | – | – | – | – | – |
| COc1ccc2c(c1)NC(=O)CN2c1nc(C)nc2c1CCC2 [Compound 5m, 7-methoxy-4-(2-methyl-6,7-dihydro-5H-cyclopenta[d]pyrimidin-4-yl)-3,4-dihydroquinoxalin-2(1H)-one] | – | – | – | – | – | – | significantly inhibited microtubule polymerization | ~80 mm^3 | 0.52 to 3.2 nM | 1 nM | more effectively inhibited wound healing | 4.5 ± 0.8 nM | 2.8 ± 1.1 nM | 86.9 mL/min/kg | 14.4 min | 1 of 5 |
